Drawing on PubChem BioAssay (NCI), this text covers TGI for 31 compounds.

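Following 48 hours of exposure in 96-well plates, responses at five concentrations were used to interpolate endpoints linearly. Definition used: TGI = concentration required for complete inhibition of growth.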

The subject of one experiment is OVCAR-5 ovarian. Description: growth of human tumour cells (NCI), 48 h.
`Cc1ccc(-c2c(C#N)c(-c3ccccc3)n(NS(=O)(=O)c3ccccc3)c(=O)c2C#N)cc1`: the TGI was > 100 µM.
For the compound `COc1ccc(C(C#N)NNC(=O)c2ccccc2O)cc1OC` (stereo not drawn), the TGI was > 100 µM.
Regarding `O=c1[nH]n2c(=O)cc[nH]c2c1-c1nnns1`, the TGI was > 100 µM.
`CCCc1cc(=O)c2c(C)c3[nH]c4ccc(Cl)cc4c3c(C)c2[nH]1` displayed a TGI of 5.58 µM.
For `CC(CN1c2ccccc2Sc2ccccc21)N(C)C` (stereo not drawn), the TGI turned out to be 32.8 µM.
`N.N.N.O=[N+]([O-])[O-].O=[N+]([O-])[O-].O=[N+]([O-])[O-].O=[N+]([O-])[O-].[Co+3]`: the TGI was > 100 µM.
With `Cc1nnc(Nc2ccccc2)o1`, the TGI was > 100 µM.
For the compound `CCCCN1C(=O)CC2[C@@H]3CCc4cc(OC(C)=O)ccc4C3CC[C@]2(C)C1=O` (stereo partly drawn), the TGI is > 10 µM.

The next experiment relates to IGROV1 ovarian. Description: growth of human tumour cells (NCI), 48 h.
Regarding `NC(C(F)(F)F)(C(F)(F)F)P(=O)(Cc1ccccc1)Cc1ccccc1`, the TGI was > 100 µM.
Same read-out and setting: to `O=C(O)CSc1nnc(COc2ccc(Cl)cc2)n1-c1ccccc1` belongs > 100 µM.
Same read-out and setting: as for `Cc1cc(N(CCC#N)CCC#N)ccc1/C=N/NC(=O)c1cc(Cl)ccc1O`, the figure is > 100 µM.
Same read-out and setting: as for `CC[C@]1(Cc2ccc(OC)c(OC)c2)CN(S(=O)(=O)c2ccc(C)cc2)C[C@@H]1OC(C)=O`, the figure is > 100 µM.
Consider `COc1ccccc1N/C(=C\C(=O)C(=O)NC12CC3CC(CC(C3)C1)C2)c1ccccc1`, for which the TGI was > 10 µM.
For `CC(C)(C)c1ccc2c(c1)CNCCNCc1cc(C(C)(C)C)ccc1OCC1(CO2)COc2ccc(C(C)(C)C)cc2CNCCNCc2cc(C(C)(C)C)ccc2OC1`, the TGI amounted to 2.5 µM.
Take `O=C(CCCCCCCCC(=O)NN1C(=O)/C(=C\c2ccc(O)c(O)c2)SC1c1ccc(Cl)cc1)NN1C(=O)/C(=C\c2ccc(O)c(O)c2)SC1c1ccc(Cl)cc1` (stereo not drawn): the TGI was > 29.5 µM.
The same measure, in the same setting: as for `CC(C)Sc1nc(C#N)cc2c1CCCC2`, the figure is > 100 µM; as for `O=C(CC(=O)n1nc(-c2ccccc2)c(N=Nc2ccccc2C(=O)O)c1-c1ccccc1)Nc1ccc(Cl)cc1`, > 100 µM.
`CN1C(=O)N(c2ccccc2)C2(CCN(CC3COc4ccccc4O3)CC2)C1=O` (stereo not drawn): the TGI was > 100 µM.
Turning to `CCOC(=O)C1Cc2[nH]c3ccccc3c2C(C)C1C` (stereo not drawn), the TGI stood at 33.9 µM.
As for `O=C(CN1c2ccccc2Sc2ccccc21)N1CCNCC1`, the TGI is > 100 µM.
The same measure, in the same setting: as for `O=C(O)c1c2c(cc3c1CC1(Cc4ccccc4C1)C3)CCC2`, the figure is > 100 µM; as for `Cc1nc(-c2ccc([N+](=O)[O-])cc2)cn2c1nc1ccccc12`, > 100 µM.
Still for that read-out and setting: as for `CN(C)CCCOC(=O)C(c1ccccc1)C1(O)CCSCC1` (stereo not drawn), the figure is > 100 µM; as for `COc1cc(-c2cc(=O)c3cc4c(cc3[nH]2)OCO4)cc(OC)c1O`, > 10 µM.
In the case of `C[C@@]12[C@H]3CC[C@@H]1[C@H](O)C(=O)N2CC3`, the TGI is > 100 µM.
Turning to `Cn1cc2ccccc2c1-c1nc(N)nc(F)n1`, the TGI is > 100 µM.
Turning to `O=C1CCC[C@@H]2NC[C@@H](c3ccc4c(c3)OCO4)[C@H]12`, the TGI was > 25 µM.
Same read-out and setting: to `O=C(Nc1ccc(Br)cc1)c1c(-c2ccccc2)c2ccc(O)cc2oc1=O` belongs > 10 µM.
For `CC1=C(O)C(=O)[C@@H]2O[C@@H]2C1=O`, the TGI stood at 48.4 µM.
Consider `CC(O[Si](c1ccccc1)(c1ccccc1)C(C)(C)C)[C@H](NC(=O)OC(C)(C)C)C(=O)O[Si](c1ccccc1)(c1ccccc1)C(C)(C)C` (stereo partly drawn), for which the TGI was found to be 31.9 µM.
Regarding `Cc1ccc(-c2c(C#N)c(-c3ccccc3)n(NS(=O)(=O)c3ccccc3)c(=O)c2C#N)cc1`, the TGI is > 100 µM.
Same read-out and setting: to `COc1ccc(C(C#N)NNC(=O)c2ccccc2O)cc1OC` (stereo not drawn) belongs > 100 µM.
Turning to `O=c1[nH]n2c(=O)cc[nH]c2c1-c1nnns1`, the TGI was > 100 µM.
On the same count and under the same terms, as for `CCCc1cc(=O)c2c(C)c3[nH]c4ccc(Cl)cc4c3c(C)c2[nH]1`, the figure is 4.7 µM; as for `CC(CN1c2ccccc2Sc2ccccc21)N(C)C` (stereo not drawn), 34.7 µM; as for `N.N.N.O=[N+]([O-])[O-].O=[N+]([O-])[O-].O=[N+]([O-])[O-].O=[N+]([O-])[O-].[Co+3]`, > 100 µM.
As to `CCCCN1C(=O)CC2[C@@H]3CCc4cc(OC(C)=O)ccc4C3CC[C@]2(C)C1=O` (stereo partly drawn), the TGI is > 10 µM.

In the next experiment the test system is HCT-116 colon. Briefly: growth of human tumour cells (NCI), 48 h.
Regarding `NC(C(F)(F)F)(C(F)(F)F)P(=O)(Cc1ccccc1)Cc1ccccc1`, the TGI is > 100 µM.
As to `O=C(O)CSc1nnc(COc2ccc(Cl)cc2)n1-c1ccccc1`, the TGI is > 100 µM.
Regarding `Cc1cc(N(CCC#N)CCC#N)ccc1/C=N/NC(=O)c1cc(Cl)ccc1O`, the TGI is > 100 µM.
Compound `CC(C)(C)c1ccc2c(c1)CNCCNCc1cc(C(C)(C)C)ccc1OCC1(CO2)COc2ccc(C(C)(C)C)cc2CNCCNCc2cc(C(C)(C)C)ccc2OC1` displayed a TGI of 2.99 µM.
Still for that read-out and setting: as for `O=C(CCCCCCCCC(=O)NN1C(=O)/C(=C\c2ccc(O)c(O)c2)SC1c1ccc(Cl)cc1)NN1C(=O)/C(=C\c2ccc(O)c(O)c2)SC1c1ccc(Cl)cc1` (stereo not drawn), the figure is > 100 µM; as for `CC(C)Sc1nc(C#N)cc2c1CCCC2`, > 100 µM.
As to `O=C(CC(=O)n1nc(-c2ccccc2)c(N=Nc2ccccc2C(=O)O)c1-c1ccccc1)Nc1ccc(Cl)cc1`, the TGI was > 100 µM.
The same measure, in the same setting: as for `CN1C(=O)N(c2ccccc2)C2(CCN(CC3COc4ccccc4O3)CC2)C1=O` (stereo not drawn), the figure is > 100 µM; as for `CCOC(=O)C1Cc2[nH]c3ccccc3c2C(C)C1C` (stereo not drawn), 32.6 µM.
As to `O=C(CN1c2ccccc2Sc2ccccc21)N1CCNCC1`, the TGI was > 100 µM.
Still for that read-out and setting: as for `Cc1nc(-c2ccc([N+](=O)[O-])cc2)cn2c1nc1ccccc12`, the figure is > 100 µM; as for `CN(C)CCCOC(=O)C(c1ccccc1)C1(O)CCSCC1` (stereo not drawn), > 100 µM.
On to `COc1cc(-c2cc(=O)c3cc4c(cc3[nH]2)OCO4)cc(OC)c1O`, for which the TGI was > 10 µM.
Consider `Cn1cc2ccccc2c1-c1nc(N)nc(F)n1`, for which the TGI is > 100 µM.
Turning to `O=C1CCC[C@@H]2NC[C@@H](c3ccc4c(c3)OCO4)[C@H]12`, the TGI is > 25 µM.
Turning to `c1ccc2c(c1)OC(N1CCCC1)c1cnc(N3CCCC3)nc1-2` (stereo not drawn), the TGI is > 100 µM.
On the same count and under the same terms, as for `CC1=C(O)C(=O)[C@@H]2O[C@@H]2C1=O`, the figure is 27.8 µM.
For the compound `CC(O[Si](c1ccccc1)(c1ccccc1)C(C)(C)C)[C@H](NC(=O)OC(C)(C)C)C(=O)O[Si](c1ccccc1)(c1ccccc1)C(C)(C)C` (stereo partly drawn), the TGI was found to be 23.7 µM.
Turning to `Cc1ccc(-c2c(C#N)c(-c3ccccc3)n(NS(=O)(=O)c3ccccc3)c(=O)c2C#N)cc1`, the TGI was > 100 µM.
On to `COc1ccc(C(C#N)NNC(=O)c2ccccc2O)cc1OC` (stereo not drawn), for which the TGI is > 100 µM.
Same read-out and setting: to `O=c1[nH]n2c(=O)cc[nH]c2c1-c1nnns1` belongs > 100 µM; to `CCCc1cc(=O)c2c(C)c3[nH]c4ccc(Cl)cc4c3c(C)c2[nH]1`, 3.09 µM; to `CC(CN1c2ccccc2Sc2ccccc21)N(C)C` (stereo not drawn), 28.9 µM.
Turning to `N.N.N.O=[N+]([O-])[O-].O=[N+]([O-])[O-].O=[N+]([O-])[O-].O=[N+]([O-])[O-].[Co+3]`, the TGI is > 100 µM.
On to `Cc1nnc(Nc2ccccc2)o1`, for which the TGI was > 100 µM.
Consider `CCCCN1C(=O)CC2[C@@H]3CCc4cc(OC(C)=O)ccc4C3CC[C@]2(C)C1=O` (stereo partly drawn), for which the TGI is > 10 µM.
